≈ marks a conversion by molar mass, not a printed value. Where two headings read alike, the source gives them in different places.

Common to all, as to format: cell-based
In experiment [1] the test system is Staphylococcus aureus X1.1. Kind of experiment: Agar-dilution MIC, Staphylococcus aureus X1.1. The source says:
(§1) The compounds of formulas 1 and 2 inhibit the growth of certain pathogenic bacteria, especially Gram-positive bacteria and Gram-negative […] such as Haemophilus influenzae.

In experiment [2] the test system is Staphylococcus aureus V41. Kind of experiment: Agar-dilution MIC, Staphylococcus aureus V41. Particulars: Staphylococcus aureus V41, penicillin-resistant strain, read-out: minimal inhibitory concentration (MIC).
Source text: as §1

The test system of experiment [3] is Staphylococcus epidermidis 270. Kind of experiment: Agar-dilution MIC, Staphylococcus epidermidis 270. As to conditions: read-out: minimal inhibitory concentration (MIC).
Source text: as §1

The subject of experiment [4] is Staphylococcus epidermidis 222. Put plainly: Agar-dilution MIC, Staphylococcus epidermidis 222. As to conditions: read-out: minimal inhibitory concentration (MIC).
Source text: as §1

For experiment [5], the system named is Streptococcus pyogenes C203. Kind of experiment: Agar-dilution MIC, Streptococcus pyogenes C203. As to conditions: read-out: minimal inhibitory concentration (MIC).
Source text: as §1

For experiment [6], the system named is Streptococcus pneumoniae Park I. Put plainly: Agar-dilution MIC, Streptococcus pneumoniae Park I. As to conditions: read-out: minimal inhibitory concentration (MIC).
Source text: as §1

Experiment [7] has as its system Streptococcus faecalis X66. Kind of experiment: Agar-dilution MIC, Streptococcus faecalis X66. Particulars: Enterococcus faecalis, read-out: minimal inhibitory concentration (MIC).
Source text: as §1

The test system of experiment [8] is Streptococcus faecalis 2041. Put plainly: Agar-dilution MIC, Streptococcus faecalis 2041. Particulars: Enterococcus faecalis, read-out: minimal inhibitory concentration (MIC).
Source text: as §1

The subject of experiment [9] is Haemophilus influenzae C.L. Put plainly: Agar-dilution MIC, Haemophilus influenzae C.L. Particulars: ampicillin-sensitive strain, read-out: minimal inhibitory concentration (MIC).
Source text: as §1

Experiment [10] deals with Haemophilus influenzae 76. Kind of experiment: Agar-dilution MIC, Haemophilus influenzae 76. As to conditions: Haemophilus influenzae 76, ampicillin-resistant strain, read-out: minimal inhibitory concentration (MIC).
Source text: as §1

Where [11] appears, read: Staphylococcus aureus X1.1, agar dilution, read-out: minimal inhibitory concentration (MIC).

Turning to `CC[C@@H](O)[C@@](C)(O)[C@@H]1OC(=O)[C@H](C)[C@@H](O[C@H]2C[C@@](C)(OC)[C@@H](O)[C@H](C)O2)[C@H](C)[C@@H](O[C@@H]2O[C@H](C)C[C@H](N(C)C)[C@H]2O)[C@@]2(C)CC(C)=C(O2)[C@@H]1C` [Compound 3], the MIC is more than 128 µg/mL in [1] (setting [11]); more than 128 µg/mL in experiment [2]; more than 128 µg/mL in experiment [3]; more than 128 µg/mL in experiment [4]; 32 µg/mL (≈ 44.7 µM) in experiment [5]; 16 µg/mL (≈ 22.3 µM) in [6]. In addition, the MIC in experiment [7] is 64 µg/mL (≈ 89.4 µM); in [8] it was more than 128 µg/mL; in experiment [9], 32 µg/mL (≈ 44.7 µM); in experiment [10], 32 µg/mL (≈ 44.7 µM).

Regarding `CC[C@@H](O)[C@H](C)[C@@H]1OC(=O)[C@H](C)[C@@H](O[C@H]2C[C@@](C)(OC)[C@@H](O)[C@H](C)O2)[C@H](C)[C@@H](O[C@@H]2O[C@H](C)C[C@H](N(C)C)[C@H]2O)[C@@]2(C)CC(C)=C(O2)[C@@H]1C` [Compound 3a], the MIC is 64 µg/mL (≈ 91.4 µM) in experiment [1] (setting [11]); more than 128 µg/mL in experiment [2]; 64 µg/mL (≈ 91.4 µM) in experiment [3]; 64 µg/mL (≈ 91.4 µM) in [4]; 64 µg/mL (≈ 91.4 µM) in experiment [5]; 64 µg/mL (≈ 91.4 µM) in experiment [6]. Besides, the MIC in [7] was determined as 64 µg/mL (≈ 91.4 µM); in [8], 64 µg/mL (≈ 91.4 µM); in experiment [9], 128 µg/mL (≈ 183 µM); in experiment [10] it was 128 µg/mL (≈ 183 µM).

`CO[C@]1(C)C[C@H](O[C@H]2[C@H](C)[C@@H](O[C@@H]3O[C@H](C)C[C@H](N(C)C)[C@H]3O)[C@@]3(C)CC(C)=C(O3)[C@H](C)[C@H](C(C)=O)OC(=O)[C@@H]2C)O[C@@H](C)[C@@H]1O` [Compound 4]: the MIC was more than 128 µg/mL in experiment [1] (setting [11]); more than 128 µg/mL in [2]; more than 128 µg/mL in experiment [3]; more than 128 µg/mL in [4]; 64 µg/mL (≈ 97.6 µM) in [5]; 32 µg/mL (≈ 48.8 µM) in experiment [6]. Besides, the MIC in [7] was determined as 16 µg/mL (≈ 24.4 µM); in experiment [8], 128 µg/mL (≈ 195 µM); in experiment [9] it was 16 µg/mL (≈ 24.4 µM); in experiment [10], 16 µg/mL (≈ 24.4 µM).

For the compound `CC[C@@H](O)[C@@](C)(O)[C@@H]1OC(=O)[C@H](C)[C@@H](O[C@H]2C[C@@](C)(OC)[C@@H](O)[C@H](C)O2)[C@H](C)[C@@H](O[C@@H]2O[C@H](C)C[C@H](N(C)C)[C@H]2O)[C@@]2(C)CC(C)(O)C(O)(O2)[C@@H]1C` (some centres unmarked) [Compound 6], the MIC in experiment [1] (Staphylococcus aureus, X1.1, read-out: minimal inhibitory concentration (MIC)) is 128 µg/mL (≈ 171 µM); in experiment [2], more than 128 µg/mL; in experiment [3], more than 128 µg/mL; in experiment [4], 64 µg/mL (≈ 85.3 µM); in experiment [5], 16 µg/mL (≈ 21.3 µM); in [6], 8 µg/mL (≈ 10.7 µM). Moreover, the MIC in [7] amounted to 16 µg/mL (≈ 21.3 µM); in [8], 64 µg/mL (≈ 85.3 µM); in experiment [9], 8 µg/mL (≈ 10.7 µM); in experiment [10] it was 8 µg/mL (≈ 10.7 µM).

As to `CO[C@]1(C)C[C@H](O[C@H]2[C@H](C)[C@@H](O[C@@H]3O[C@H](C)C[C@H](N(C)C)[C@H]3O)[C@@](C)(CC(C)=O)OC(=O)[C@H](C)[C@H](C(C)=O)OC(=O)[C@@H]2C)O[C@@H](C)[C@@H]1O` [Compound 8], the MIC was more than 128 µg/mL in experiment [1] (setting [11]); more than 128 µg/mL in experiment [2]; more than 128 µg/mL in experiment [3]; more than 128 µg/mL in [4]; 128 µg/mL (≈ 186 µM) in experiment [5]; 32 µg/mL (≈ 46.5 µM) in [6]. For the same compound, the MIC in experiment [7] is 64 µg/mL (≈ 93 µM); in experiment [8], more than 128 µg/mL; in experiment [9], 64 µg/mL (≈ 93 µM); in experiment [10], 64 µg/mL (≈ 93 µM).

Values taken from patent US5106961A, “Erythromycin ring-contracted derivatives” (Eli Lilly and Company, priority 1989, dated 1992).
